According to patent US20080234223A1, “N4 MODIFICATIONS OF PYRIMIDINE ANALOGS AND USES THEREOF” (UNIVERSITY OF SOUTHERN CALIFORNIA, priority 2006, published 2008):

Assays:
[1] = rapid deamination by plasma cytidine deaminase; cited from earlier work
[2] = tested on: HepG2 cells; assay: Cell toxicity during drug treatment of HepG2 cells; format: cell-based; settings: for toxicity: 10 uM continual treatment, time course
Method: (§1) Cells were seeded at 2×10^4 cells per well in a 12-well dish 24 hours prior to treatments. Cells were treated with 5-Aza-CdR (Sigma-Aldrich Chemical Company, St. Louis, Mo.), NPEOC-DAC at the indicated concentrations. 5-aza-2′-deoxyazacytidine was dissolved in distilled water and NPEOC-DAC was dissolved in dimethyl sulfoxide (DMSO). Untreated controls of the DMSO solvent alone were also included. Cells were treated at the concentrations indicated for each experiment. Cells were collected after the number of days indicated in individual experiments. For subsequent methylation, genomic DNA was extracted using standard phenol/chloroform extraction methods, as described previously (27). Each experiment was done in triplicate and standard deviations are indicated by error bars.

[3] = tested on: LINE-1 DNA methylation in MCF7 cells (breast); assay: Global DNA methylation, bisulfite-PCR pyrosequencing of LINE-1, MCF7 cells; format: cell-based; settings: MCF; 10 μM; three days
Method: (§2) T24 cells (urinary bladder transitional cell carcinoma), MCF7 (breast adenocarcinoma), HepG2 cells (hepatocellular carcinoma), Hep3B (hepatocellular carcinoma), were obtained from American Type Culture Collection (Manassas, Va.). T24 were cultured in McCoy's 5A medium supplemented with 10% fetal bovine serum. Other cells were cultured in DMEM medium plus 10% fetal bovine serum. All cells were grown in a humidified 37° C. incubator containing 5% CO2.
as §1, with “For subsequent methylation, genomic DNA was extracted using standard phenol/chloroform extraction methods, as described previously (27). Each experiment was done in triplicate and standard deviations are indicated by error bars.” left out
(§3) Bisulfite modification of genomic DNA has been described previously (28). […] Bisulfite treated DNA was stored at −20° C. until ready for use.
(§4) Bisulfite-converted DNA was used for pyrosequencing analysis as previously described (29). […] Raw data were analyzed with the allele quantification algorithm using the provided software. […]

[4] = tested on: ID4 DNA methylation in HepG2 cells; assay: ID4 gene methylation, bisulfite-PCR pyrosequencing, HepG2 cells; format: cell-based; settings: 10 μM, 3 days, baseline 94.7%
Method: as §2
as §1, with “For subsequent methylation, genomic DNA was extracted using standard phenol/chloroform extraction methods, as described previously (27). Each experiment was done in triplicate and standard deviations are indicated by error bars.” left out
as §3, §4

[5] = tested on: ID4 expression in HepG2 cells; assay: ID4 mRNA expression by RT-PCR in HepG2 cells; format: cell-based; settings: 3 days of treatment, untreated cells no detectable ID4
Method: Genomic DNA was isolated by standard proteinase K digestion and phenol-chloroform extraction (26). Total RNA was collected and extracted from cultured cells with the RNeasy Protect minikit (Qiagen, Valencia, Calif.) according to the manufacturer's protocol.
as §1
Total RNA (5 micrograms) extracted from cultured cells was reverse transcribed with Moloney murine leukemia virus reverse transcriptase (Invitrogen, Carlsbad, Calif.) and random hexamers (NEB) in a total volume of 20 microliters. The reverse transcription was performed according to the manufacturer's recommended protocol. […]

[6] = tested on: ID4 DNA methylation in T24 cells; assay: ID4 gene methylation, bisulfite-PCR pyrosequencing, T24 cells; format: cell-based; settings: 10 μM, 3 days, baseline 40.2%
Method: as §2
as §1, with “For subsequent methylation, genomic DNA was extracted using standard phenol/chloroform extraction methods, as described previously (27). Each experiment was done in triplicate and standard deviations are indicated by error bars.” left out
as §3, §4

[7] = tested on: LINE-1 DNA methylation in Hep3B cells (liver); assay: Global DNA methylation, bisulfite-PCR pyrosequencing of LINE-1, Hep3B cells; format: cell-based; settings: 10 μM, three days
Method: as §2
as §1, with “For subsequent methylation, genomic DNA was extracted using standard phenol/chloroform extraction methods, as described previously (27). Each experiment was done in triplicate and standard deviations are indicated by error bars.” left out
as §3, §4

[8] = tested on: epigenetically silenced GFP reporter gene in NIH3T3 cells; assay: Epigenetic GFP reporter system, NIH3T3 cells with transient CES1 or CES2 transfection; format: cell-based; settings: NIH3T3 GFP reporter clone
From the text: It was discovered that NPEOC-DAC could inhibit DNA methylation in cells expressing CES1 but not cells expressing CES2, and that inhibition of CES by NDGA blocked the ability of NPEOC-DAC to inhibit DNA methylation. […] Transfection of CES2 had no effect on NPEOC-DAC treatment and activation of GFP. NPEOC-DAC activation is dependent on CES1 expression.

[9] = tested on: LINE-1 DNA methylation in HepG2 cells (liver); assay: Global DNA methylation, bisulfite-PCR pyrosequencing of LINE-1, HepG2 cells; format: cell-based; settings: for LINE-1 methylation level after treatment / LINE-1 methylation level, time course / decrease in global DNA methylation (LINE-1): HepG2; for LINE-1 methylation level after treatment: 3 days, untreated baseline 53.9%; for LINE-1 methylation level, time course: 10 μM continual treatment, baseline 53.9%; for decrease in global DNA methylation (LINE-1): three days
Method: as §2, §1
(§5) Bisulfite modification of genomic DNA has been described previously (28). In brief, 1.5 μg of DNA was denatured in 50 μl of 0.2 M NaOH for 10 min at 37° C. Then, 30 μl of freshly prepared 10 mM hydroquinone (Sigma) and 520 μl of 3 M sodium bisulfite (Sigma) at pH 5.0 were added and mixed. The samples were overlaid with mineral oil to prevent evaporation and incubated at 50° C. for 16 h. The bisulfite-treated DNA was isolated using Wizard DNA Clean-Up System (Promega). The DNA was eluted by 50 microliters of warm water and 5.5 microliters of 3 M NaOH were added for 5 min. The DNA was ethanol precipitated with glycogen as a carrier and resuspended in 20 microliters of water. Bisulfite treated DNA was stored at −20° C. until ready for use.
(§6) Bisulfite-converted DNA was used for pyrosequencing analysis as previously described (29). In brief, PCR product of each gene was used for individual sequencing reaction. Streptavidin-Sepharose beads (Amersham Biosciences, Uppsala, Sweden) and Vacuum Prep Tool (Biotage AB, Uppsala, Sweden) was used to purify the single-stranded biotinylated PCR product per the manufacturer's recommendation. The appropriate sequencing primer was annealed to the purified PCR product and used for a pyrosequencing reaction using the PSQ 96HS system (Biotage AB, Uppsala, Sweden). Raw data were analyzed with the allele quantification algorithm using the provided software. Pyrosequencing was done for LINE-1 elements and ID4 tumor suppressor gene.

[10] = tested on: ID4 DNA methylation in Hep3B cells; assay: ID4 gene methylation, bisulfite-PCR pyrosequencing, Hep3B cells; format: cell-based; settings: 10 μM, 3 days, baseline 95.4%
Method: as §2
as §1, with “For subsequent methylation, genomic DNA was extracted using standard phenol/chloroform extraction methods, as described previously (27). Each experiment was done in triplicate and standard deviations are indicated by error bars.” left out
as §3, §4

[11] = tested on: LINE-1 DNA methylation in T24 cells (bladder); assay: Global DNA methylation, bisulfite-PCR pyrosequencing of LINE-1, T24 cells; format: cell-based; settings: for LINE-1 methylation level after treatment: baseline 47.3%; for decrease in global DNA methylation (LINE-1): three days
Method: as §2, §1, §5, §6

[12] = tested on: ID4 DNA methylation in MCF7 cells; assay: ID4 gene methylation, bisulfite-PCR pyrosequencing, MCF7 cells; format: cell-based; settings: MCF; 10 μM; 3 days; baseline 39.0%
Method: as §2
as §1, with “For subsequent methylation, genomic DNA was extracted using standard phenol/chloroform extraction methods, as described previously (27). Each experiment was done in triplicate and standard deviations are indicated by error bars.” left out
as §3, §4

[13] = tested on: LINE-1 DNA methylation in HepG2 cells (carboxylesterase dependence); assay: Inhibition of carboxylesterase by NDGA: LINE-1 methylation in HepG2 cells; format: cell-based
From the text: as §6
For dose effects of nordihydroguaiaretic acid (NDGA) on CES inhibition, HepG2 cells were grown in 6-well plates. […] Cells were harvested on day 4 by Tripsin-EDTA.

[14] = Solubility in water; format: physicochemical; settings: consequently dissolved in DMSO

SMILES	toxicity [2]	decrease in global DNA methylation (LINE-1) [3] [%]	decrease in DNA methylation of ID4 [4] [%]	ID4 mRNA expression (RT-PCR) [5]	decrease in DNA methylation of ID4 [6] [%]	decrease in global DNA methylation (LINE-1) [7] [%]	reactivation of GFP ([8]; no CES transfection)	LINE-1 methylation level after treatment ([9]; 0.5 μM)	LINE-1 methylation level, time course ([9]; day 1)	LINE-1 methylation level, time course ([9]; day 7)	decrease in global DNA methylation (LINE-1) ([9]; 10 μM) [%]	decrease in DNA methylation of ID4 [10] [%]	decrease in global DNA methylation (LINE-1) ([11]; 10 μM) [%]	decrease in DNA methylation of ID4 [12] [%]	other results
Nc1ncn([C@@H]2O[C@H](CO)[C@@H](O)[C@H]2O)c(=O)n1 [5-azacytidine]															in vivo plasma half-life [1]: 41 min
Nc1ncn([C@H]2C[C@H](O)[C@@H](CO)O2)c(=O)n1 [DAC, 5-aza-2′-deoxycytidine, reference compound]	significant toxicity	11.0	2.6	clear expression of ID4 could be detected	38.1	12.3	could be reactivated	46.0%	36.5%	returned to baseline	5.6	1.1	57.1	19.7	cell toxicity ([2]; higher concentrations (5 μM), 3 days): significant cell toxicity; LINE-1 methylation level after treatment ([9]; 1 μM): 47.0%; LINE-1 methylation level after treatment ([9]; 5 μM): 56.9%; LINE-1 methylation level after treatment ([11]; 0.5 uM, 3 days): 26.8%; LINE-1 methylation level after treatment ([11]; 1 uM, 3 days): 21.0%; LINE-1 methylation level after treatment ([11]; 5 uM, 3 days): 35.7%
CC(Cc1ccc(O)c(O)c1)C(C)Cc1ccc(O)c(O)c1 (centres unmarked) [NDGA, nordihydroguaiaretic acid, reference compound]															effect on DNA methylation of HepG2 cells ([13]; 100 μM, alone): no effect
O=C(Nc1ncn([C@H]2C[C@H](O)[C@@H](CO)O2)c(=O)n1)OCCc1ccc([N+](=O)[O-])cc1 [NPEOC-DAC, 2′-deoxy-N4-[2-(4-nitrophenyl)ethoxycarbonyl]-5-azacytidine]	less toxicity than observed with DAC	5.1	24.7	increased expression of ID4	8.2	17.4	without reactivation of GFP	no detectable effect	did not begin to decrease LINE-1 methylation until day 3	38.9%	22.1	26.2	0.9	10.0	solubility in water [14]: very low solubility in water; reactivation of GFP ([8]; transfection of CES2): no effect; reactivation of GFP ([8]; transient transfection of human CES1 gene): reactivation of GFP; delay in the effects compared to DAC [9]: 3 days; fold less efficient at inhibiting DNA methylation compared to DAC [9]: 23 fold; LINE-1 methylation level, time course ([9]; day 3): 43.7%; LINE-1 methylation level, time course ([9]; day 14): 30.9%; LINE-1 methylation level after treatment ([9]; 10 μM, concentration series): 42.0%; LINE-1 methylation level after treatment ([9]; 100 μM): 28.7%; decrease in DNA methylation (LINE-1), time course ([11]; 10 μM, prolonged treatment (to day 14)): did not show any decrease; change in DNA methylation (LINE-1) ([11]; 3 days, up to the highest concentrations): no change in DNA methylation; LINE-1 methylation decreased by ([13]; 10 μM NPEOC-DAC alone): 49.7%; LINE-1 methylation level after treatment ([13]; 10 μM NPEOC-DAC alone): 24.5%; LINE-1 methylation change in combination with NDGA ([13]; in combination with NDGA (100 μM)): did not decrease
